Experimental data from patent publication US20030129629A1, “Methods and compositions for the identification, assessment, prevention, and therapy of human cancers” (Millennium Pharmaceuticals, Inc., priority 2000, published 2003).

System: 60 cancer cell lines (NCI 60 cancer cell line series)
Assay: NCI-DTP in vitro cancer screen, sulforhodamine B (SRB) growth inhibition, 48 hour exposure
Format: cell-based, human
Outline: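 Potency is given as mean −log{GI50} from dose–response curves, manually binned into Low, Medium or High sensitivity. Sixty NCI-DTP tumour lines were treated 48 h with a duplicate, five-dose, ten-fold dilution series, and growth read by SRB staining of cell mass.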

For Sc1ncnc2nc[nH]c12 [6-mercaptopurine], the “classification of cell line as Low(1), Medium(2), High(3) sensitivity to compound” value (“classification of cell line” below) (Breast BT-549 CL5013) was 1, the “classification of cell line” value (Breast HS-578T CL5006) was 1 and the “classification of cell line” value (Breast MCF7(I) CL5001) was 2. For the same compound, the “classification of cell line” value (Breast MCF7/ADRr CL5002) was 2, the “classification of cell line” value (Breast MDA-MB-231 CL5005) was 1 and the “classification of cell line” value (Breast MDA-MB-435 CL5011) was 2. For the same compound, the “classification of cell line” value (Breast MDA-N CL5012) was 2, the “classification of cell line” value (Breast T-47D CL5014) was 2 and the “classification of cell line” value (CNS SF-268 CL12014) was 2. For the same compound, the “classification of cell line” value (CNS SF-295 CL12015) was 2, the “classification of cell line” value (CNS SF-539 CL12016) was 2 and the “classification of cell line” value (CNS SNB-19 CL12002) was 1. The “classification of cell line” value (CNS SNB-75(I) CL12005) was 2, the “classification of cell line” value (CNS U251(I) CL12009) was 2 and the “classification of cell line” value (Colon COLO-250 CL4010) was 2. For the same compound, the “classification of cell line” value (Colon HCC-2998 CL4002) was 2, the “classification of cell line” value (Colon HCT-15 CL4015) was 2 and the “classification of cell line” value (Colon HCT-116 CL4003) was 2. For the same compound, the “classification of cell line” value (Colon HT29(I) CL4001) was 2, the “classification of cell line” value (Colon KM12 CL4017) was 2 and the “classification of cell line” value (Colon SW-620 CL4009) was 2. For the same compound, the “classification of cell line” value (Leukemia CCRF-CEM(I) CL7003) was 3, the “classification of cell line” value (Leukemia HL-60(I) CL7008) was 2 and the “classification of cell line” value (Leukemia K562(I) CL7005) was 3. For the same compound, the “classification of cell line” value (Leukemia MOLT-4 CL7006) was 2, the “classification of cell line” value (Leukemia RPMI-8226(I) CL7010) was 2 and the “classification of cell line” value (Leukemia SR CL7019) was 3. For the same compound, the “classification of cell line” value (Melanoma LOX IMVI CL10001) was 3, the “classification of cell line” value (Melanoma M14 CL10014) was 3 and the “classification of cell line” value (Melanoma MALME-3M CL10002) was 2. The “classification of cell line” value (Melanoma SK-MEL-2 CL10005) was 2, the “classification of cell line” value (Melanoma SK-MEL-5 CL10007) was 2 and the “classification of cell line” value (Melanoma SK-MEL-28 CL10008) was 1. The “classification of cell line” value (Melanoma UACC-62 CL10020) was 2, the “classification of cell line” value (Melanoma UACC-257 CL10021) was 1 and the “classification of cell line” value (NSCLC A549/ATCC CL1004) was 1. The “classification of cell line” value (NSCLC EKVX CL1008) was 1, the “classification of cell line” value (NSCLC HOP-62 CL1026) was 2 and the “classification of cell line” value (NSCLC HOP-92 CL1029) was 2. For the same compound, the “sensitivity classification Low(1)/Medium(2)/High(3)” value (NSCLC NCI-H23(I) CL1001) was 2, the “classification of cell line” value (NSCLC NCI-H226 CL1013) was 1 and the “sensitivity classification Low(1)/Medium(2)/High(3)” value (NSCLC NCI-H332M CL1017) was 2. For the same compound, the “sensitivity classification Low(1)/Medium(2)/High(3)” value (NSCLC NCI-H460 CL1021) was 2, the “sensitivity classification Low(1)/Medium(2)/High(3)” value (NSCLC NCI-H522 CL1003) was 2 and the “sensitivity classification Low(1)/Medium(2)/High(3)” value (Ovarian IGROV1 CL6010) was 2. For the same compound, the “sensitivity classification Low(1)/Medium(2)/High(3)” value (Ovarian OVCAR-3 CL6001) was 3, the “sensitivity classification Low(1)/Medium(2)/High(3)” value (Ovarian OVCAR-4 CL6002) was 2 and the “sensitivity classification Low(1)/Medium(2)/High(3)” value (Ovarian OVCAR-5 CL6003) was 2. For the same compound, the “sensitivity classification Low(1)/Medium(2)/High(3)” value (Ovarian OVCAR-8 CL6005) was 2, the “sensitivity classification Low(1)/Medium(2)/High(3)” value (Ovarian SK-OV-3 CL6011) was 3 and the “sensitivity classification Low(1)/Medium(2)/High(3)” value (Prostate DU-145 CL11003) was 2. For the same compound, the “sensitivity classification Low(1)/Medium(2)/High(3)” value (Prostate PC-3(I) CL11001) was 2, the “sensitivity classification Low(1)/Medium(2)/High(3)” value (Renal 786-0 CL9018) was 2 and the “sensitivity classification Low(1)/Medium(2)/High(3)” value (Renal A498 CL9013) was 1. For the same compound, the “sensitivity classification Low(1)/Medium(2)/High(3)” value (Renal ACHN CL9023) was 2, the “sensitivity classification Low(1)/Medium(2)/High(3)” value (Renal CAKI-1 CL9015) was 2 and the “sensitivity classification Low(1)/Medium(2)/High(3)” value (Renal RXF-393 CL9016) was 1. The “sensitivity classification Low(1)/Medium(2)/High(3)” value (Renal SN12C CL9008) was 1, the “sensitivity classification Low(1)/Medium(2)/High(3)” value (Renal TK10 CL9024) was 2 and the “sensitivity classification Low(1)/Medium(2)/High(3)” value (Renal UO-31 CL9004) was 2.
In the case of CS(=O)(=O)OCCCCOS(C)(=O)=O [Busulfan], the “classification of cell line” value (Breast BT-549 CL5013) is reported as 1, the “classification of cell line” value (Breast HS-578T CL5006) is reported as 1 and the “classification of cell line” value (Breast MCF7(I) CL5001) is reported as 2. For the same compound, the “classification of cell line” value (Breast MCF7/ADRr CL5002) was 2, the “classification of cell line” value (Breast MDA-MB-231 CL5005) was 1 and the “classification of cell line” value (Breast MDA-MB-435 CL5011) was 1. The “classification of cell line” value (Breast MDA-N CL5012) was 2, the “classification of cell line” value (Breast T-47D CL5014) was 1 and the “classification of cell line” value (CNS SF-268 CL12014) was 2. For the same compound, the “classification of cell line” value (CNS SF-295 CL12015) was 2, the “classification of cell line” value (CNS SF-539 CL12016) was 1 and the “classification of cell line” value (CNS SNB-19 CL12002) was 2. For the same compound, the “classification of cell line” value (CNS SNB-75(I) CL12005) was 3, the “classification of cell line” value (CNS U251(I) CL12009) was 1 and the “classification of cell line” value (Colon COLO-250 CL4010) was 2. The “classification of cell line” value (Colon HCC-2998 CL4002) was 2, the “classification of cell line” value (Colon HCT-15 CL4015) was 2 and the “classification of cell line” value (Colon HCT-116 CL4003) was 1. For the same compound, the “classification of cell line” value (Colon HT29(I) CL4001) was 1, the “classification of cell line” value (Colon KM12 CL4017) was 1 and the “classification of cell line” value (Colon SW-620 CL4009) was 2. The “classification of cell line” value (Leukemia CCRF-CEM(I) CL7003) was 3, the “classification of cell line” value (Leukemia HL-60(I) CL7008) was 3 and the “classification of cell line” value (Leukemia K562(I) CL7005) was 2. For the same compound, the “classification of cell line” value (Leukemia MOLT-4 CL7006) was 3, the “classification of cell line” value (Leukemia RPMI-8226(I) CL7010) was 1 and the “classification of cell line” value (Leukemia SR CL7019) was 3. For the same compound, the “classification of cell line” value (Melanoma LOX IMVI CL10001) was 2, the “classification of cell line” value (Melanoma M14 CL10014) was 1 and the “classification of cell line” value (Melanoma MALME-3M CL10002) was 1. The “classification of cell line” value (Melanoma SK-MEL-2 CL10005) was 1, the “classification of cell line” value (Melanoma SK-MEL-5 CL10007) was 2 and the “classification of cell line” value (Melanoma SK-MEL-28 CL10008) was 2. The “classification of cell line” value (Melanoma UACC-62 CL10020) was 2, the “classification of cell line” value (Melanoma UACC-257 CL10021) was 2 and the “classification of cell line” value (NSCLC A549/ATCC CL1004) was 2. The “classification of cell line” value (NSCLC EKVX CL1008) was 2, the “classification of cell line” value (NSCLC HOP-62 CL1026) was 2 and the “classification of cell line” value (NSCLC HOP-92 CL1029) was 2. The “sensitivity classification Low(1)/Medium(2)/High(3)” value (NSCLC NCI-H23(I) CL1001) was 2, the “classification of cell line” value (NSCLC NCI-H226 CL1013) was 2 and the “sensitivity classification Low(1)/Medium(2)/High(3)” value (NSCLC NCI-H332M CL1017) was 1. The “sensitivity classification Low(1)/Medium(2)/High(3)” value (NSCLC NCI-H460 CL1021) was 3, the “sensitivity classification Low(1)/Medium(2)/High(3)” value (NSCLC NCI-H522 CL1003) was 1 and the “sensitivity classification Low(1)/Medium(2)/High(3)” value (Ovarian IGROV1 CL6010) was 1. The “sensitivity classification Low(1)/Medium(2)/High(3)” value (Ovarian OVCAR-3 CL6001) was 2, the “sensitivity classification Low(1)/Medium(2)/High(3)” value (Ovarian OVCAR-4 CL6002) was 2 and the “sensitivity classification Low(1)/Medium(2)/High(3)” value (Ovarian OVCAR-5 CL6003) was 1. For the same compound, the “sensitivity classification Low(1)/Medium(2)/High(3)” value (Ovarian OVCAR-8 CL6005) was 1, the “sensitivity classification Low(1)/Medium(2)/High(3)” value (Ovarian SK-OV-3 CL6011) was 1 and the “sensitivity classification Low(1)/Medium(2)/High(3)” value (Prostate DU-145 CL11003) was 2. The “sensitivity classification Low(1)/Medium(2)/High(3)” value (Prostate PC-3(I) CL11001) was 1, the “sensitivity classification Low(1)/Medium(2)/High(3)” value (Renal 786-0 CL9018) was 2 and the “sensitivity classification Low(1)/Medium(2)/High(3)” value (Renal A498 CL9013) was 1. For the same compound, the “sensitivity classification Low(1)/Medium(2)/High(3)” value (Renal ACHN CL9023) was 2, the “sensitivity classification Low(1)/Medium(2)/High(3)” value (Renal CAKI-1 CL9015) was 3 and the “sensitivity classification Low(1)/Medium(2)/High(3)” value (Renal RXF-393 CL9016) was 3. The “sensitivity classification Low(1)/Medium(2)/High(3)” value (Renal SN12C CL9008) was 2, the “sensitivity classification Low(1)/Medium(2)/High(3)” value (Renal TK10 CL9024) was 1 and the “sensitivity classification Low(1)/Medium(2)/High(3)” value (Renal UO-31 CL9004) was 1.
